Data as given in patent US20020165216A1, “Cobalt-porphyrin complexes and use thereof as an anti-obesity agent” (MitoKor, priority 2000, published 2002).
“Also recorded” adds a separate entry of the source.

What was measured:
[1] = Oxygen consumption catalyzed by Co-P in the presence of ascorbate/TMPD (Clark oxygen electrode); conditions: 2 mM ascorbate, 40 μM TMPD
Method: (Co-MP). Such activity can be readily determined by, for example, the assay disclosed in Example 16. In that assay, redox activity is measured by oxygen consumption catalyzed by a Co-P test compound in the presence of ascorbate and TMPD.
Ten mM stock solutions of a Co-P of this invention (i.e., test compound) were prepared using ethanol as solvent. KCl media consists of 125 mM KCl, 2 mM K2HPO4, 20 mM HEPES, pH 7.0. Oxygen consumption measurements were carried out using a Clark type oxygen electrode (Rank Brothers Ltd., Cambridge, UK) and assay solutions were magnetically stirred during the course of the experiments. To 500 μl of assay solution (KCl media supplemented with 2 mM sodium ascorbate and 40 μM […] (TMPD)) is added 2 μl of a stock solution of test compound (40 μM final concentration) and the oxygen consumption rate is followed for 2-4 min. Subsequently, a 5 μl aliquot of a freshly made catalase solution (100 mg/ml solution in KCl media) is added to determine if H2O2 is generated via redox cycling of the test compound.
Initial rates are calculated from oxygen consumption slopes and rate of a solvent control is subtracted. […] An aliquot of a 10 mM stock solution of Co-MP (final concentration of 40 μM) was added to assay buffer containing 2 mM of ascorbate and 40 μM of TMPD. […] Addition of catalase results in conversion of H2O2 present in the assay solution to O2 and H2O.
Stock solutions of the test compound were at 10 mM. Aliquots of the stock solutions were added to 500 μl of assay buffer containing 2 mM of ascorbate and 40 μM of TMPD.
Representative Co-P compounds of this invention were prepared by the procedures disclosed above, and assayed by the procedure of Example 16 to measure oxygen consumption catalyzed by the test compound in the presence of ascorbate/TMPD. […] The above procedure was then repeated for other representative Co-P compounds of this invention, but utilizing different ligands and/or R groups.

[2] = rat, in vivo; cited from earlier work
[3] = Lesion severity assay (nuchal injection site); type: in vivo, Male Sprague Dawley rats; conditions: scale 0 no lesions to 5 worst lesions; 12 mM, 400 μl per 100 grams body weight, subcutaneous, nuchal area, 8 days
Method: Male Sprague Dawley rats (approximately 200 g) were purchased from Charles River Canada, Inc. and were shipped to the Animal Care Facility at the University of Vermont. Upon arrival they were housed in separate cages with corncob bedding and ad lib access to tap water and purina rat chow. The animal facility is maintained at a temperature of 71° F. +/− 1° F. with a 12-hour light/dark cycle, lights on at 6:00 am and off at 6:00 pm. Two days later (Day-3) all rats were shaved in the nuchal area and baseline color photographs of the nuchal area were taken (light halothane anesthesia was utilized to facilitate the shaving). Three days later (Day 0) experimental compounds were made up at 12 mM concentrations in vehicle (i.e., saline:PEG400:EtOH (5:4:1), pH 7.4). Animals were injected subcutaneously in the nuchal area with the various stock solutions at a dose of 400 μl per 100 grams body weight. Typical injection volumes, therefore, range from 1 to 1.5 ml per animal. Animals were injected using a modified Z-track technique to try and minimize outflow of injected compounds due to the high volume utilized. Each animal was weighed prior to injection and all injections were accomplished in an approximately two-hour period. […]
Means of body weights for each group were calculated and plotted over time (FIG. 9A), as were numerical means of the lesion severity index (FIG. 9B). […]

Weight loss assay = type: in vivo, Male Sprague Dawley rats; conditions: 12 mM in vehicle, 400 μl per 100 grams body weight, subcutaneous, nuchal area, 8 days
Method: Male Sprague Dawley rats (approximately 200 g) were purchased from Charles River Canada, Inc. and were shipped to the Animal Care Facility at the University of Vermont. Upon arrival they were housed in separate cages with corncob bedding and ad lib access to tap water and purina rat chow. The animal facility is maintained at a temperature of 71° F. +/− 1° F. with a 12-hour light/dark cycle, lights on at 6:00 am and off at 6:00 pm. Two days later (Day-3) all rats were shaved in the nuchal area and baseline color photographs of the nuchal area were taken (light halothane anesthesia was utilized to facilitate the shaving). Three days later (Day 0) experimental compounds were made up at 12 mM concentrations in vehicle (i.e., saline:PEG400:EtOH (5:4:1), pH 7.4). Animals were injected subcutaneously in the nuchal area with the various stock solutions at a dose of 400 μl per 100 grams body weight. Typical injection volumes, therefore, range from 1 to 1.5 ml per animal. Animals were injected using a modified Z-track technique to try and minimize outflow of injected compounds due to the high volume utilized. Each animal was weighed prior to injection and all injections were accomplished in an approximately two-hour period. No anesthesia was utilized for injections.
Animals subsequently underwent daily weighing with a Mettler 6 second integrating balance and had ad lib access to tap water and purina rat chow. At various intervals after injections, the nuchal area of rats was again photographed. […] The scale used was 0 for no lesions, 5 for the worst lesions with breakdown of the skin and open flow of exudates. Grades in-between were estimated by the operator based on the size and severity of the lesion. […] After 8 days, final photographs were taken and all animals were euthanized, marking the end of the experiment.
Means of body weights for each group were calculated and plotted over time (FIG. 9A), as were numerical means of the lesion severity index (FIG. 9B). In FIGS. 9A and 9B, C=noninjected control, V=vehicle injected control, A=Co-MP, E=Cpd. No. (1-6) and F=Cpd. No. (4-4). […] Cpd.

[4] = system: SH-SY5Y neuroblastoma cells; experiment: Cellular assay for generation of reactive oxygen species (ROS); type: cell-based; conditions: 30 minutes with test compound
Method: All cell culture reagents were incubated in a water bath at 37° C. for approximately 30 minutes. Existing media from a near confluent tissue culture flask containing SH-SY5Y neuroblastoma cells was aspirated using a flame sterilized glass transfer pipette attached to a trapped vacuum apparatus. Calcium free PBS buffer was pipetted into the tissue culture flask (2 ml for a 75 cm2 flask, 3 ml for a 175 cm^2 flask). The flask was tipped slightly to ensure that the buffer covers the cell culture and then the buffer was removed by aspiration. Trypsin media was pipetted into the tissue culture flask (2 ml for a 75 cm^2 flask, 3 ml for a 175 cm^2 flask) and evenly spread to ensure that the trypsin covered the cell culture. The cell culture was incubated with trypsin media for 4-6 minutes at room temperature. After cells were released from the flask, the flask was tilted to one corner. Using the existing media within the flask, the aggregated cells were collected towards one corner and repeatedly pipetted to obtain a single cell suspension. The cell suspension was transferred with a pipette into a 15 ml conical shaped centrifuge tube then cell culture media was added to the suspension up to a total volume of 14 ml. Ten μl aliquots were withdrawn and the cells were counted using a hemocytometer. The suspension was centrifuged at 200×g for 10 minutes, the supernatant was aspirated off, and the cell pellet was resuspended at 3.75×10^5 cells/ml in cell culture medium. Two hundred μl of cell suspension were aliquoted per well in the 96 well dish to obtain a final cell number of 75,000 cells per well. The plates were incubated overnight at 37° C. and 5% CO2 in a humidified cell incubator.
The medium was carefully removed from the wells by aspiration with an 18 g needle. The wells were gently rinsed once with 200 μl of warm Hanks balanced saline solution (HBSS, Gibco-BRL). […]
Stock solutions of test compound, such as Co-PP, Co-MP, or a Co-P of this invention, and of an H2O2 scavenger such as ebselen, were typically prepared in dimethylformamide or dimethylsulfoxide and diluted further into working concentrations using HBSS. […] The plate was read immediately in Cytofluor model 2350 system (Millipore; excitation wavelength: 485 nm; emission wavelength: 530 nm) for a 0 min timepoint reading. The cells were incubated for 30 minutes at room temperature with test compound following which a 30 min reading was taken. The change in RMF over the 30 minutes period was calculated for each well. […] The plate was then read in the Cytofluor (excitation wavelength: 360 nm; emission wavelength: 460 nm) and the Hoechst fluorescence values were used to normalize the DCFC-DA RMF data.

Substance: cobalt mesoporphyrin [Co-MP]
- Relative Rate (oxygen consumption), effect of ligand ([1]; Table 1, Co-MP with L1 = L2 varied, 40 μM test compound, normalized to chloride salt of Co-MP = 1): 1 (assigned value)
- Relative Rate (oxygen consumption), effect of ligand and R5 moiety ([1]; Table 2, 40 μM test compound, normalized to chloride salt of Co-MP = 1): 1 (assigned value)
- Relative Rate (oxygen consumption), effect of ligand, R5 and A moiety ([1]; Table 3, 40 μM test compound, normalized to chloride salt of Co-MP = 1): 1 (assigned value)
- Relative Rate (oxygen consumption), effect of ligand, R5, A and n moiety ([1]; Table 4, 40 μM test compound, normalized to chloride salt of Co-MP = 1): 1.0 (assigned
- O2 consumption / redox cycling (in words) ([1]; cell free ascorbate/TMPD system): immediate depletion of dissolved O2; also recorded: triggers robust consumption of O2
- body weight regulating effect compared with Co-PP [2]: comparable biological profile
- lesion severity [3]: greatest lesion severity
- body weight response (Weight loss assay): greatest body weight response
- generation of reactive oxygen species (DCFC-DA fluorescence) [4]: reactive oxygen species were induced
